PubChem BioAssay (NCI)
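Briefly, cells in 96-well plates were exposed to five compound concentrations for 48 h, and endpoints were estimated by linear interpolation. Here, GI50 denotes the concentration required for 50% inhibition of growth. The concentration for full growth arrest is given as TGI.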

Key:
Assay in all cases: NCI tumour cell line growth inhibition, 48 h
U251 CNS = tested on: U251 CNS
HS 578T breast = tested on: HS 578T breast
NCI/ADR-RES ovarian = tested on: NCI/ADR-RES ovarian
RXF 393 renal = tested on: RXF 393 renal
SW-620 colon = tested on: SW-620 colon
UACC-62 melanoma = tested on: UACC-62 melanoma
SF-539 CNS = tested on: SF-539 CNS
SNB-75 CNS = tested on: SNB-75 CNS
MALME-3M melanoma = tested on: MALME-3M melanoma
HOP-62 NSCLC = tested on: HOP-62 NSCLC
MCF7 breast = tested on: MCF7 breast
OVCAR-8 ovarian = tested on: OVCAR-8 ovarian
UO-31 renal = tested on: UO-31 renal
HCT-116 colon = tested on: HCT-116 colon
IGROV1 ovarian = tested on: IGROV1 ovarian
RPMI-8226 leukemia = tested on: RPMI-8226 leukemia
M14 melanoma = tested on: M14 melanoma
HCC-2998 colon = tested on: HCC-2998 colon
MDA-MB-468 breast = tested on: MDA-MB-468 breast
NCI-H460 lung = tested on: NCI-H460 lung
HOP-92 NSCLC = tested on: HOP-92 NSCLC
TK-10 renal = tested on: TK-10 renal
SK-OV-3 ovarian = tested on: SK-OV-3 ovarian
HL-60(TB) leukemia = tested on: HL-60(TB) leukemia
K-562 leukemia = tested on: K-562 leukemia
NCI-H226 lung = tested on: NCI-H226 lung
NCI-H23 lung = tested on: NCI-H23 lung
HCT-15 colon = tested on: HCT-15 colon
T-47D breast = tested on: T-47D breast
PC-3 prostate = tested on: PC-3 prostate
HT29 colon = tested on: HT29 colon
ACHN renal = tested on: ACHN renal
CAKI-1 renal = tested on: CAKI-1 renal
MDA-MB-231 breast = tested on: MDA-MB-231 breast
A498 renal = tested on: A498 renal
CCRF-CEM leukemia = tested on: CCRF-CEM leukemia
SK-MEL-5 melanoma = tested on: SK-MEL-5 melanoma
SK-MEL-2 melanoma = tested on: SK-MEL-2 melanoma
SF-295 CNS = tested on: SF-295 CNS
MOLT-4 leukemia = tested on: MOLT-4 leukemia
OVCAR-3 ovarian = tested on: OVCAR-3 ovarian
786-0 renal = tested on: 786-0 renal
BT-549 breast = tested on: BT-549 breast
OVCAR-4 ovarian = tested on: OVCAR-4 ovarian
LOX IMVI melanoma = tested on: LOX IMVI melanoma
MDA-MB-435 = tested on: MDA-MB-435
DU-145 prostate = tested on: DU-145 prostate
A549 NSCLC = tested on: A549 NSCLC
SN12C renal = tested on: SN12C renal
SF-268 CNS = tested on: SF-268 CNS
UACC-257 melanoma = tested on: UACC-257 melanoma
NCI-H522 lung = tested on: NCI-H522 lung
OVCAR-5 ovarian = tested on: OVCAR-5 ovarian
SR leukemia = tested on: SR leukemia
KM12 colon = tested on: KM12 colon
SK-MEL-28 melanoma = tested on: SK-MEL-28 melanoma
SNB-19 CNS = tested on: SNB-19 CNS
EKVX NSCLC = tested on: EKVX NSCLC
COLO 205 colon = tested on: COLO 205 colon

`CCN1CCN(c2ccc(NC(=O)Nc3ccc(-c4cc(C(=O)NC(C)C)c5ncccc5n4)cc3)cc2C(F)(F)F)CC1` gave a GI50 (U251 CNS) of 1.24 µM, a TGI (U251 CNS) of 4.82 µM and a GI50 (HS 578T breast) of 0.88 µM. The TGI (HS 578T breast) was 3.45 µM, the GI50 (NCI/ADR-RES ovarian) was 3.66 µM and the TGI (NCI/ADR-RES ovarian) was 10 µM. It also gave a GI50 (RXF 393 renal) of 0.654 µM, a TGI (RXF 393 renal) of 1.73 µM and a GI50 (SW-620 colon) of 0.637 µM. The TGI (SW-620 colon) was 1.26 µM, the GI50 (UACC-62 melanoma) was 3.99 µM and the TGI (UACC-62 melanoma) was 8.28 µM. The GI50 (SF-539 CNS) was 0.534 µM, the TGI (SF-539 CNS) was 1.02 µM and the GI50 (SNB-75 CNS) was 0.979 µM. For the same compound, the TGI (SNB-75 CNS) was 5.14 µM, the GI50 (MALME-3M melanoma) was 0.575 µM and the TGI (MALME-3M melanoma) was 1.05 µM. It also gave a GI50 (HOP-62 NSCLC) of 3.83 µM, a TGI (HOP-62 NSCLC) of 8.89 µM and a GI50 (MCF7 breast) of 0.631 µM. The TGI (MCF7 breast) was 1.5 µM, the GI50 (OVCAR-8 ovarian) was 5.69 µM and the TGI (OVCAR-8 ovarian) was 17.5 µM. The GI50 (UO-31 renal) was 2.18 µM, the TGI (UO-31 renal) was 6.81 µM and the GI50 (HCT-116 colon) was 0.638 µM. It also gave a TGI (HCT-116 colon) of 1.3 µM, a GI50 (IGROV1 ovarian) of 1.42 µM and a TGI (IGROV1 ovarian) of 5.11 µM. It also gave a GI50 (RPMI-8226 leukemia) of 1.04 µM, a TGI (RPMI-8226 leukemia) of 34.5 µM and a GI50 (M14 melanoma) of 0.723 µM. It also gave a TGI (M14 melanoma) of 1.9 µM, a GI50 (HCC-2998 colon) of 1.44 µM and a TGI (HCC-2998 colon) of 5.09 µM. For the same compound, the GI50 (MDA-MB-468 breast) was 0.766 µM, the TGI (MDA-MB-468 breast) was 1.85 µM and the GI50 (NCI-H460 lung) was 0.617 µM. The TGI (NCI-H460 lung) was 1.18 µM, the GI50 (HOP-92 NSCLC) was 3.14 µM and the TGI (HOP-92 NSCLC) was 8.29 µM. The GI50 (TK-10 renal) was 1.35 µM, the TGI (TK-10 renal) was 4.87 µM and the GI50 (SK-OV-3 ovarian) was 5.33 µM. The TGI (SK-OV-3 ovarian) was 10.8 µM, the GI50 (HL-60(TB) leukemia) was 1.07 µM and the TGI (HL-60(TB) leukemia) was 5.89 µM. For the same compound, the GI50 (K-562 leukemia) was 1 µM, the TGI (K-562 leukemia) was 34.5 µM and the GI50 (NCI-H226 lung) was 5.02 µM. It also gave a TGI (NCI-H226 lung) of 12.5 µM, a GI50 (NCI-H23 lung) of 2.05 µM and a TGI (NCI-H23 lung) of 7.27 µM. It also gave a GI50 (HCT-15 colon) of 0.667 µM, a TGI (HCT-15 colon) of 1.35 µM and a GI50 (T-47D breast) of 1.93 µM. For the same compound, the TGI (T-47D breast) was 8.74 µM, the GI50 (PC-3 prostate) was 0.76 µM and the TGI (PC-3 prostate) was 2.1 µM. For the same compound, the GI50 (HT29 colon) was 0.665 µM, the TGI (HT29 colon) was 1.32 µM and the GI50 (ACHN renal) was 1.02 µM. For the same compound, the TGI (ACHN renal) was 3.47 µM, the GI50 (CAKI-1 renal) was 0.804 µM and the TGI (CAKI-1 renal) was 2.08 µM. The GI50 (MDA-MB-231 breast) was 0.61 µM, the TGI (MDA-MB-231 breast) was 1.18 µM and the GI50 (A498 renal) was 5.11 µM. For the same compound, the TGI (A498 renal) was 9.7 µM, the GI50 (CCRF-CEM leukemia) was 1.01 µM and the TGI (CCRF-CEM leukemia) was 3.1 µM. For the same compound, the GI50 (SK-MEL-5 melanoma) was 1.41 µM, the TGI (SK-MEL-5 melanoma) was 5.28 µM and the GI50 (SK-MEL-2 melanoma) was 4.82 µM. The TGI (SK-MEL-2 melanoma) was 9.89 µM, the GI50 (SF-295 CNS) was 0.581 µM and the TGI (SF-295 CNS) was 1.14 µM. For the same compound, the GI50 (MOLT-4 leukemia) was 1.11 µM, the TGI (MOLT-4 leukemia) was 30.6 µM and the GI50 (OVCAR-3 ovarian) was 0.636 µM. The TGI (OVCAR-3 ovarian) was 1.36 µM, the GI50 (786-0 renal) was 0.497 µM and the TGI (786-0 renal) was 1.03 µM. For the same compound, the GI50 (BT-549 breast) was 4.83 µM, the TGI (BT-549 breast) was 9.57 µM and the GI50 (OVCAR-4 ovarian) was 0.88 µM. It also gave a TGI (OVCAR-4 ovarian) of 2.45 µM, a GI50 (LOX IMVI melanoma) of 0.557 µM and a TGI (LOX IMVI melanoma) of 1.05 µM. The GI50 (MDA-MB-435) was 0.65 µM, the TGI (MDA-MB-435) was 1.31 µM and the GI50 (DU-145 prostate) was 0.749 µM. For the same compound, the TGI (DU-145 prostate) was 1.58 µM, the GI50 (A549 NSCLC) was 1.14 µM and the TGI (A549 NSCLC) was 5.77 µM. The GI50 (SN12C renal) was 0.668 µM, the TGI (SN12C renal) was 1.38 µM and the GI50 (SF-268 CNS) was 3.56 µM. The TGI (SF-268 CNS) was 10.9 µM, the GI50 (UACC-257 melanoma) was 3.45 µM and the TGI (UACC-257 melanoma) was 8.11 µM. For the same compound, the GI50 (NCI-H522 lung) was 3.52 µM, the TGI (NCI-H522 lung) was 8.43 µM and the GI50 (OVCAR-5 ovarian) was 1.6 µM. It also gave a TGI (OVCAR-5 ovarian) of 6.09 µM, a GI50 (SR leukemia) of 1.05 µM and a TGI (SR leukemia) of 12.1 µM. It also gave a GI50 (KM12 colon) of 1.01 µM, a TGI (KM12 colon) of 2.91 µM and a GI50 (SK-MEL-28 melanoma) of 0.752 µM. For the same compound, the TGI (SK-MEL-28 melanoma) was 1.85 µM, the GI50 (SNB-19 CNS) was 4.24 µM and the TGI (SNB-19 CNS) was 9.12 µM. It also gave a GI50 (EKVX NSCLC) of 1.61 µM, a TGI (EKVX NSCLC) of 5.82 µM and a GI50 (COLO 205 colon) of 0.931 µM. The TGI (COLO 205 colon) was 2.71 µM.
